Results as given in patent publication US20020137929A1, “1 - (3-heterocyclylphenyl) isothiourea, -isourea, -guanidine and -amidine herbicidal agents” (Intellectual Property Department, BASF Aktiengesellschaft, priority 1998, published 2002).

Assays:
[1] = tested on: AMBEL (Ragweed, Common); assay: Postemergence herbicidal evaluation; type: in vivo, Ambrosia artemisifolia; settings: postemergence
Method in brief: (§1)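 Rate range approx. 0.0156–0.500 kg/ha. Foliar application at 40 psi to ~2-week seedlings; surfactant 0.5% TWEEN 20 in 50/50 acetone/water. Evaluation 4–5 wk post-treatment by 0–9 visual injury score, means of replicate tests.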

[2] = tested on: CASOB (Sicklepod); assay: Postemergence herbicidal evaluation; type: in vivo, Cassia obtusifolia; settings: postemergence
Method in brief: as §1

[3] = tested on: CHEAL (Lambsquarters, Common); assay: Postemergence herbicidal evaluation; type: in vivo, Chenopodium album; settings: postemergence
Method in brief: as §1

[4] = tested on: GALAP (Galium); assay: Postemergence herbicidal evaluation; type: in vivo, Galium aparine; settings: postemergence
Method in brief: as §1

[5] = tested on: ECHCG (Barnyardgrass); assay: Postemergence herbicidal evaluation; type: in vivo, Echinochloa crus-galli; settings: postemergence
Method in brief: as §1

[6] = tested on: SETVI (Foxtail, Green); assay: Postemergence herbicidal evaluation; type: in vivo, Setaria viridis; settings: postemergence
Method in brief: as §1

[7] = tested on: GLXMAW (Soybean, Williams); assay: Postemergence herbicidal evaluation; type: in vivo, Glycine max, (L.) Merr. cv Williams; settings: postemergence
Method in brief: as §1

[8] = tested on: ORYSAT (Rice, Tebonnet); assay: Postemergence herbicidal evaluation; type: in vivo, Oryza sativa, (L.) Tebonnet; settings: postemergence
Method in brief: as §1

[9] = tested on: CASOB (Sicklepod); assay: Preemergence herbicidal evaluation; type: in vivo, Cassia obtusifolia; settings: rated 4-5 weeks after treatment
Method in brief: (§2)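 Seeds were mixed with potting soil and planted on about one inch of soil, then sprayed with test compound in aqueous acetone at about 0.0156 to 0.500 kg per hectare. Plants grew under standard greenhouse care and were visually rated 0-9 against untreated controls 4-5 weeks post-treatment.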

[10] = tested on: GALAP (Galium); assay: Preemergence herbicidal evaluation; type: in vivo, Galium aparine; settings: rated 4-5 weeks after treatment
Method in brief: as §2

[11] = tested on: ZEAMX (Corn, Field); assay: Preemergence herbicidal evaluation; type: in vivo, Zea mays; settings: rated 4-5 weeks after treatment
Method in brief: as §2

[12] = tested on: CYPIR (Rice Flatsedge); assay: Preemergence weed control under flooded paddy conditions; type: in vivo, Cyperus iria; settings: rated 3-4 weeks after treatment
Method in brief: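 Seeds or propagules sown in silt loam kept flooded 1.5-3 cm; compounds in 50/50 acetone/water pipetted into flood water at about 0.0313 to 0.500 kg/ha. Greenhouse; visual 0-9 rating versus untreated control 3-4 weeks after treatment.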

[13] = tested on: CYPSE (Flatsedge); assay: as above; type: in vivo, Cyperus serotinus; settings: rated 3-4 weeks after treatment
Method in brief: (§3)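 Herbicidal effect is scored visually on a 0-9 scale against an untreated control, three to four weeks after compounds are pipetted into the flood water (1.5 to 3 cm deep) over seeds planted in silt loam at 0.5 cm depth. Rates: about 0.0313 to 0.500 kg/ha.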

[14] = tested on: SAGPY (Arrowhead (Pygmaea)); assay: as above; type: in vivo, Sagittaria pygmaea; settings: rated 3-4 weeks after treatment
Method in brief: as §3

[15] = tested on: CYPSE (Flatsedge); assay: Postemergence weed control under flooded paddy conditions; type: in vivo, Cyperus serotinus; settings: postemergence weeds, rated 3 to 4 weeks after treatment
Method in brief: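 Containers holding 3–5 cm weeds and rice at 1.5–2.5 leaves are flooded to 1.5–3 cm above soil. Compound in 50/50 v/v aqueous/acetone is then added directly to the water, about 0.0313–0.500 kg/ha. Plants are kept in the greenhouse and rated 0–9 visually at 3–4 weeks.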

C[C@@H](C(=O)OC(C)(C)C)N1C(=O)CSC1=Nc1cc(-n2c(=O)cc(C(F)(F)F)n(C)c2=O)c(F)cc1Cl [Compound 75, tert-Butyl 2-{{2-chloro-5-[3,6-dihydro-3-methyl-2,6-dioxo-4-(trifluoromethyl)-1(2H)-pyrimidinyl]-4-fluorophenyl}imino}-α-methyl-4-oxo-3-thiazolidineacetate, L-]
1.0: CASOB herbicidal rating ([2]; rate 0.0158 kg/ha) | CASOB herbicidal rating ([2]; rate 0.0315 kg/ha) | GALAP herbicidal rating ([4]; rate 0.0158 kg/ha) | ECHCG herbicidal rating ([5]; rate 0.0158 kg/ha) | ECHCG herbicidal rating ([5]; rate 0.0315 kg/ha) | ECHCG herbicidal rating ([5]; rate 0.0630 kg/ha) | SETVI herbicidal rating ([6]; rate 0.0158 kg/ha) | Preemergence herbicidal rating CASOB ([9]; rate 0.1250 kg/ha) | Preemergence herbicidal rating CASOB ([9]; rate 0.2500 kg/ha) | Preemergence herbicidal rating ZEAMX ([11]; rate 0.1250 kg/ha)
4.5: GLXMAW herbicidal rating ([7]; rate 0.0315 kg/ha)
9.0: AMBEL herbicidal rating ([1]; rate 0.0630 kg/ha)
3.0: CASOB herbicidal rating ([2]; rate 0.0630 kg/ha) | SETVI herbicidal rating ([6]; rate 0.0630 kg/ha) | Preemergence herbicidal rating ZEAMX ([11]; rate 0.2500 kg/ha) | CYPSE herbicidal effect rating ([13]; 0.0625 kg/ha) | CYPSE herbicidal effect rating ([13]; 0.1250 kg/ha) | CYPSE herbicidal effect rating ([13]; 0.2500 kg/ha) | SAGPY herbicidal effect rating ([14]; 0.2500 kg/ha) | Herbicidal rating CYPSE ([15]; Rate 0.0625 kg/ha) | Herbicidal rating CYPSE ([15]; Rate 0.1250 kg/ha) | Herbicidal rating CYPSE ([15]; Rate 0.2500 kg/ha)
5.0: AMBEL herbicidal rating ([1]; rate 0.0315 kg/ha) | GALAP herbicidal rating ([4]; rate 0.0630 kg/ha) | SETVI herbicidal rating ([6]; rate 0.0315 kg/ha) | GLXMAW herbicidal rating ([7]; rate 0.0630 kg/ha)
2.5: ORYSAT herbicidal rating ([8]; rate 0.0315 kg/ha) | ORYSAT herbicidal rating ([8]; rate 0.0630 kg/ha)
4.0: GLXMAW herbicidal rating ([7]; rate 0.0158 kg/ha)
6.0: CYPIR herbicidal effect rating ([12]; 0.1250 kg/ha) | CYPIR herbicidal effect rating ([12]; 0.2500 kg/ha)
2.0: GALAP herbicidal rating ([4]; rate 0.0315 kg/ha) | ORYSAT herbicidal rating ([8]; rate 0.0158 kg/ha) | CYPSE herbicidal effect rating ([13]; 0.0313 kg/ha) | Herbicidal rating CYPSE ([15]; Rate 0.0313 kg/ha)
0.0: Preemergence herbicidal rating CASOB ([9]; rate 0.0156 kg/ha) | Preemergence herbicidal rating CASOB ([9]; rate 0.0313 kg/ha) | Preemergence herbicidal rating CASOB ([9]; rate 0.0625 kg/ha) | Preemergence herbicidal rating GALAP ([10]; rate 0.0156 kg/ha) | Preemergence herbicidal rating GALAP ([10]; rate 0.0313 kg/ha) | Preemergence herbicidal rating GALAP ([10]; rate 0.0625 kg/ha) | Preemergence herbicidal rating GALAP ([10]; rate 0.1250 kg/ha) | Preemergence herbicidal rating GALAP ([10]; rate 0.2500 kg/ha) | Preemergence herbicidal rating ZEAMX ([11]; rate 0.0156 kg/ha) | Preemergence herbicidal rating ZEAMX ([11]; rate 0.0313 kg/ha) | Preemergence herbicidal rating ZEAMX ([11]; rate 0.0625 kg/ha) | CYPIR herbicidal effect rating ([12]; 0.0313 kg/ha) | CYPIR herbicidal effect rating ([12]; 0.0625 kg/ha) | SAGPY herbicidal effect rating ([14]; 0.0313 kg/ha) | SAGPY herbicidal effect rating ([14]; 0.0625 kg/ha) | SAGPY herbicidal effect rating ([14]; 0.1250 kg/ha)
7.0: AMBEL herbicidal rating ([1]; rate 0.0158 kg/ha) | CHEAL herbicidal rating ([3]; rate 0.0158 kg/ha) | CHEAL herbicidal rating ([3]; rate 0.0315 kg/ha) | CHEAL herbicidal rating ([3]; rate 0.0630 kg/ha)

CCOC(=O)[C@H](Cc1ccccc1)N1C(=O)CSC1=Nc1cc(-n2c(=O)cc(C(F)(F)F)n(C)c2=O)c(F)cc1Cl [Compound 80, Ethyl α-benzyl-2-{{2-chloro-5-[3,6-dihydro-3-methyl-2,6-dioxo-4-(trifluoromethyl)-1(2H)-pyrimidinyl]-4-fluorophenyl}imino}-4-oxo-3-thiazolidineacetate, L-]
3.5: ORYSAT herbicidal rating ([8]; rate 0.0158 kg/ha) | ORYSAT herbicidal rating ([8]; rate 0.0315 kg/ha)
5.5: GLXMAW herbicidal rating ([7]; rate 0.0315 kg/ha)
4.5: GLXMAW herbicidal rating ([7]; rate 0.0158 kg/ha)
5.0: CASOB herbicidal rating ([2]; rate 0.0315 kg/ha) | GALAP herbicidal rating ([4]; rate 0.0630 kg/ha) | CYPIR herbicidal effect rating ([12]; 0.0313 kg/ha)
7.0: AMBEL herbicidal rating ([1]; rate 0.0630 kg/ha) | CYPIR herbicidal effect rating ([12]; 0.0625 kg/ha) | CYPIR herbicidal effect rating ([12]; 0.1250 kg/ha) | CYPIR herbicidal effect rating ([12]; 0.2500 kg/ha)
3.0: ECHCG herbicidal rating ([5]; rate 0.0630 kg/ha) | Preemergence herbicidal rating ZEAMX ([11]; rate 0.1250 kg/ha) | Preemergence herbicidal rating ZEAMX ([11]; rate 0.2500 kg/ha) | CYPSE herbicidal effect rating ([13]; 0.0313 kg/ha) | CYPSE herbicidal effect rating ([13]; 0.0625 kg/ha) | CYPSE herbicidal effect rating ([13]; 0.1250 kg/ha) | Herbicidal rating CYPSE ([15]; Rate 0.0313 kg/ha) | Herbicidal rating CYPSE ([15]; Rate 0.0625 kg/ha) | Herbicidal rating CYPSE ([15]; Rate 0.1250 kg/ha)
1.0: CASOB herbicidal rating ([2]; rate 0.0158 kg/ha) | ECHCG herbicidal rating ([5]; rate 0.0158 kg/ha) | SETVI herbicidal rating ([6]; rate 0.0158 kg/ha) | Preemergence herbicidal rating CASOB ([9]; rate 0.0156 kg/ha) | Preemergence herbicidal rating ZEAMX ([11]; rate 0.0625 kg/ha)
4.0: GALAP herbicidal rating ([4]; rate 0.0315 kg/ha) | SETVI herbicidal rating ([6]; rate 0.0630 kg/ha) | ORYSAT herbicidal rating ([8]; rate 0.0630 kg/ha) | Preemergence herbicidal rating GALAP ([10]; rate 0.1250 kg/ha) | Preemergence herbicidal rating GALAP ([10]; rate 0.2500 kg/ha) | CYPSE herbicidal effect rating ([13]; 0.2500 kg/ha) | Herbicidal rating CYPSE ([15]; Rate 0.2500 kg/ha)
2.0: GALAP herbicidal rating ([4]; rate 0.0158 kg/ha) | ECHCG herbicidal rating ([5]; rate 0.0315 kg/ha) | SETVI herbicidal rating ([6]; rate 0.0315 kg/ha)
9.0: AMBEL herbicidal rating ([1]; rate 0.0158 kg/ha) | AMBEL herbicidal rating ([1]; rate 0.0315 kg/ha) | CASOB herbicidal rating ([2]; rate 0.0630 kg/ha) | CHEAL herbicidal rating ([3]; rate 0.0158 kg/ha) | CHEAL herbicidal rating ([3]; rate 0.0315 kg/ha) | CHEAL herbicidal rating ([3]; rate 0.0630 kg/ha) | Preemergence herbicidal rating CASOB ([9]; rate 0.1250 kg/ha) | Preemergence herbicidal rating CASOB ([9]; rate 0.2500 kg/ha)
6.5: GLXMAW herbicidal rating ([7]; rate 0.0630 kg/ha)
0.0: Preemergence herbicidal rating CASOB ([9]; rate 0.0313 kg/ha) | Preemergence herbicidal rating CASOB ([9]; rate 0.0625 kg/ha) | Preemergence herbicidal rating GALAP ([10]; rate 0.0156 kg/ha) | Preemergence herbicidal rating GALAP ([10]; rate 0.0313 kg/ha) | Preemergence herbicidal rating GALAP ([10]; rate 0.0625 kg/ha) | Preemergence herbicidal rating ZEAMX ([11]; rate 0.0156 kg/ha) | Preemergence herbicidal rating ZEAMX ([11]; rate 0.0313 kg/ha) | SAGPY herbicidal effect rating ([14]; 0.0313 kg/ha) | SAGPY herbicidal effect rating ([14]; 0.0625 kg/ha) | SAGPY herbicidal effect rating ([14]; 0.1250 kg/ha) | SAGPY herbicidal effect rating ([14]; 0.2500 kg/ha)
